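Compound exposure: 48 hours, 5 concentrations, 96-well plates. TGI marks complete inhibition of growth.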
Key:
Assay in all cases: NCI tumour cell line growth inhibition, 48 h
[1] = system: 786-0 renal
[2] = system: A498 renal
[3] = system: A549 NSCLC
[4] = system: ACHN renal
[5] = system: CAKI-1 renal
[6] = system: CCRF-CEM leukemia
[7] = system: COLO 205 colon
[8] = system: DLD-1 colon
[9] = system: DMS 114 small cell lung
[10] = system: DMS 273 small cell lung
[11] = system: HCC-2998 colon
[12] = system: HCT-116 colon
[13] = system: HCT-15 colon
[14] = system: HL-60(TB) leukemia
[15] = system: HOP-18 NSCLC
[16] = system: HOP-92 NSCLC
[17] = system: HT29 colon
[18] = system: IGROV1 ovarian
[19] = system: K-562 leukemia
[20] = system: KM12 colon
[21] = system: KM20L2 colon
[22] = system: LOX IMVI melanoma
[23] = system: LXFL 529 NSCLC
[24] = system: M14 melanoma
[25] = system: M19-MEL melanoma
[26] = system: MALME-3M melanoma
[27] = system: MOLT-4 leukemia
[28] = system: NCI-H226 lung
[29] = system: NCI-H23 lung
[30] = system: NCI-H460 lung
[31] = system: NCI-H522 lung
[32] = system: OVCAR-3 ovarian
[33] = system: OVCAR-4 ovarian
[34] = system: OVCAR-5 ovarian
[35] = system: OVCAR-8 ovarian
[36] = system: RPMI-8226 leukemia
[37] = system: RXF 393 renal
[38] = system: SF-268 CNS
[39] = system: SK-MEL-2 melanoma
[40] = system: SK-MEL-28 melanoma
[41] = system: SK-OV-3 ovarian
[42] = system: SN12C renal
[43] = system: SNB-75 CNS
[44] = system: SNB-78 CNS
[45] = system: SW-620 colon
[46] = system: TK-10 renal
[47] = system: U251 CNS
[48] = system: UACC-257 melanoma
[49] = system: UACC-62 melanoma
[50] = system: UO-31 renal
[51] = system: HOP-62 NSCLC
[52] = system: SF-295 CNS
[53] = system: SF-539 CNS
[54] = system: SK-MEL-5 melanoma
[55] = system: SNB-19 CNS
[56] = system: EKVX NSCLC

CCOC(=O)N1CCN(P(=O)(Nc2ccc3nc(NC(=O)OC)[nH]c3c2)Oc2ccccc2)CC1 (stereo not given)
TGI [1]: > 100 µM | TGI [2]: > 100 µM | TGI [3]: > 100 µM | TGI [4]: > 100 µM | TGI [5]: > 100 µM | TGI [6]: > 100 µM | TGI [7]: > 100 µM | TGI [8]: > 100 µM | TGI [9]: > 100 µM | TGI [10]: > 100 µM | TGI [11]: > 100 µM | TGI [12]: > 100 µM | TGI [13]: > 100 µM | TGI [14]: > 100 µM | TGI [15]: > 100 µM | TGI [16]: > 100 µM | TGI [17]: > 100 µM | TGI [18]: > 100 µM | TGI [19]: > 100 µM | TGI [20]: > 100 µM | TGI [21]: > 100 µM | TGI [22]: > 100 µM | TGI [23]: > 100 µM | TGI [24]: > 100 µM | TGI [25]: > 100 µM | TGI [26]: > 100 µM | TGI [27]: > 100 µM | TGI [28]: > 100 µM | TGI [29]: > 100 µM | TGI [30]: > 100 µM | TGI [31]: > 100 µM | TGI [32]: > 100 µM | TGI [33]: > 100 µM | TGI [34]: > 100 µM | TGI [35]: > 100 µM | TGI [36]: > 100 µM | TGI [37]: > 100 µM | TGI [38]: > 100 µM | TGI [39]: > 100 µM | TGI [40]: > 100 µM | TGI [41]: > 100 µM | TGI [42]: > 100 µM | TGI [43]: > 100 µM | TGI [44]: > 100 µM | TGI [45]: > 100 µM | TGI [46]: > 100 µM | TGI [47]: > 100 µM | TGI [48]: > 100 µM | TGI [49]: > 100 µM | TGI [50]: > 100 µM

CC(=O)Nc1ccc(-c2nnc(SCC(=O)Nc3ccc(Cl)cc3Cl)o2)cc1
TGI [1]: 44.3 µM | TGI [2]: > 100 µM | TGI [3]: > 100 µM | TGI [4]: > 100 µM | TGI [5]: > 100 µM | TGI [6]: > 100 µM | TGI [7]: 68.3 µM | TGI [8]: > 100 µM | TGI [9]: 38.7 µM | TGI [10]: > 100 µM | TGI [11]: > 100 µM | TGI [12]: > 100 µM | TGI [13]: > 100 µM | TGI [14]: > 100 µM | TGI [15]: > 100 µM | TGI [51]: > 100 µM | TGI [17]: > 100 µM | TGI [18]: > 100 µM | TGI [19]: > 100 µM | TGI [20]: > 100 µM | TGI [21]: > 100 µM | TGI [22]: > 100 µM | TGI [23]: 54.7 µM | TGI [24]: > 100 µM | TGI [25]: > 100 µM | TGI [26]: 60.3 µM | TGI [27]: > 100 µM | TGI [28]: 99 µM | TGI [29]: > 100 µM | TGI [30]: > 100 µM | TGI [31]: 48.3 µM | TGI [32]: 57.9 µM | TGI [33]: > 100 µM | TGI [34]: > 100 µM | TGI [35]: > 100 µM | TGI [37]: 66.3 µM | TGI [38]: > 100 µM | TGI [52]: > 100 µM | TGI [53]: 84.4 µM | TGI [39]: > 100 µM | TGI [40]: > 100 µM | TGI [54]: 37.4 µM | TGI [41]: > 100 µM | TGI [42]: 57.5 µM | TGI [55]: 51.9 µM | TGI [43]: 96.6 µM | TGI [44]: > 100 µM | TGI [45]: > 100 µM | TGI [46]: > 100 µM | TGI [47]: 38.7 µM | TGI [48]: > 100 µM | TGI [50]: > 100 µM

CC(=O)OC12c3ccccc3C1CCCC21OCCCO1 (stereo not given)
TGI [1]: > 100 µM | TGI [2]: > 100 µM | TGI [3]: > 100 µM | TGI [4]: > 100 µM | TGI [5]: > 100 µM | TGI [6]: > 100 µM | TGI [7]: > 100 µM | TGI [8]: > 100 µM | TGI [9]: > 100 µM | TGI [10]: > 100 µM | TGI [56]: > 100 µM | TGI [11]: > 100 µM | TGI [12]: > 100 µM | TGI [13]: > 100 µM | TGI [15]: > 100 µM | TGI [51]: > 100 µM | TGI [17]: > 100 µM | TGI [18]: > 100 µM | TGI [19]: > 100 µM | TGI [20]: > 100 µM | TGI [21]: > 100 µM | TGI [22]: > 100 µM | TGI [23]: > 100 µM | TGI [24]: > 100 µM | TGI [25]: > 100 µM | TGI [26]: > 100 µM | TGI [27]: > 100 µM | TGI [28]: > 100 µM | TGI [29]: > 100 µM | TGI [30]: > 100 µM | TGI [31]: > 100 µM | TGI [32]: > 100 µM | TGI [33]: > 100 µM | TGI [34]: > 100 µM | TGI [35]: > 100 µM | TGI [36]: > 100 µM | TGI [37]: > 100 µM | TGI [38]: > 100 µM | TGI [52]: > 100 µM | TGI [53]: > 100 µM | TGI [39]: > 100 µM | TGI [40]: > 100 µM | TGI [41]: > 100 µM | TGI [42]: > 100 µM | TGI [55]: > 100 µM | TGI [43]: > 100 µM | TGI [44]: > 100 µM | TGI [45]: > 100 µM | TGI [46]: > 100 µM | TGI [47]: > 100 µM | TGI [48]: > 100 µM | TGI [49]: > 100 µM | TGI [50]: > 100 µM

Source: PubChem BioAssay (NCI)
